# From patent EP1200395B1, “UREA DERIVATIVES AS INHIBITORS OF CCR-3 RECEPTOR” (KIRIN BEER KABUSHIKI KAISHA, priority 1999, dated 2001)
# Target: T1, CCR-3 (Homo sapiens, UniProt P51677)
# T1 sequence (P51677 1-355): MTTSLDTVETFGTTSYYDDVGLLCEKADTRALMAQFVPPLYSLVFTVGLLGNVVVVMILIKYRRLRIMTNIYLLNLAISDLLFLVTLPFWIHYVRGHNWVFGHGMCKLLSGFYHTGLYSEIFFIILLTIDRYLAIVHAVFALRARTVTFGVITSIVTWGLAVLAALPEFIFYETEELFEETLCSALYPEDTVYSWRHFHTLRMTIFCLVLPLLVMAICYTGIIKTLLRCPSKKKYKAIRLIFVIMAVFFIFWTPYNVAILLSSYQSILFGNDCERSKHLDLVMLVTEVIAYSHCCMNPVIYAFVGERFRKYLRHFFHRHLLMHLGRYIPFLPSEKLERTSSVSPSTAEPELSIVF
# Assay: Eotaxin-induced chemotaxis of CCR-3 transfectant cells (CCR3/U937)
# Type: cell-based
# Design: expressed in transfected cells; host or cells: U937
# Settings: 10 µM test compound; eotaxin 1 x 10^-9 M; CCR3/U937 cells (Table 3c)
row,SMILES,Chemotaxis Assay 10 µM (inhibition %) [%]
1,CC[N+](CC)(CCCNC(=O)Nc1ccccc1)C1CCc2ccccc21.[I-] (stereo not drawn) [compound 311],93
2,CC[N+](CCCNC(=O)Nc1ccc(Br)cc1)(CCCC(=O)OC)C(C)c1ccccc1.[I-] (stereo not drawn) [compound 312],97
3,CC[N+](CCCNC(=O)Nc1ccc(Br)cc1)(CCCC(=O)OC)C(C)c1ccccc1.[I-] (stereo not drawn) [compound 313],86
4,CC[N+](CCCNC(=O)Nc1ccc(Br)cc1)(CCCC(=O)OC)C1CCc2ccccc21.[I-] (stereo not drawn) [compound 314],100
5,CC[N+](CCCNC(=O)Nc1ccccc1)(CCc1ccc(Cl)cc1)CC(C)C.[I-] (stereo not drawn) [compound 318],100
6,CC[N+](CCCNC(=O)Nc1ccccc1)(CCc1ccc(Cl)cc1)CC1CCCCC1.[I-] (stereo not drawn) [compound 319],100
7,CCOC(=O)CCCCC[N+](CC)(CCCNC(=O)Nc1ccccc1)CCc1ccc(Cl)cc1.[I-] (stereo not drawn) [compound 321],100
8,CC[N+](CCCNC(=O)Nc1ccc(OC)cc1)(CCc1ccc(Cl)cc1)Cc1ccccc1.[I-] (stereo not drawn) [compound 324],100
9,CC[N+](CCCNC(=O)Nc1ccc(C#N)cc1)(CCc1ccc(Cl)cc1)Cc1ccccc1.[I-] (stereo not drawn) [compound 326],100
10,CC[N+](CCCNC(=O)Nc1ccccc1)(CCc1cccc(Cl)c1)Cc1ccccc1.[I-] (stereo not drawn) [compound 328],100
11,CC[N+](CCCNC(=O)Nc1ccccc1)(CCc1ccc(Cl)cc1)Cc1ccc(-c2ccccc2)cc1.[I-] (stereo not drawn) [compound 330],100
12,CC[N+](CCCNC(=O)Nc1ccccc1)(CCc1ccc(Cl)cc1)Cc1cccc(OC)c1.[I-] (stereo not drawn) [compound 331],100
13,CC[N+](CCCNC(=O)Nc1ccccc1)(CCc1ccc(Cl)cc1)Cc1cccc(C(=O)OC)c1.[I-] (stereo not drawn) [compound 332],100
14,CC[N+](CCCNC(=O)Nc1ccccc1)(CCc1ccc(Cl)cc1)Cc1cccc(Oc2ccccc2)c1.[I-] (stereo not drawn) [compound 333],100
15,CC[N+](CCCNC(=O)Nc1ccccc1)(CCc1ccc(Cl)cc1)Cc1ccc(OCc2ccccc2)cc1.[I-] (stereo not drawn) [compound 334],100
16,CC[N+](CCCNC(=O)Nc1ccccc1)(CCc1ccc(Cl)cc1)Cc1ccc([N+](=O)[O-])cc1.[I-] (stereo not drawn) [compound 337],99
17,CC[N+](CCCNC(=O)Nc1ccccc1)(CCc1ccc(Cl)cc1)Cc1cccc([N+](=O)[O-])c1.[I-] (stereo not drawn) [compound 338],100
18,CC[N+](CCCNC(=O)Nc1ccccc1)(CCc1ccc(Cl)cc1)Cc1ccccc1-c1ccccc1.[I-] (stereo not drawn) [compound 341],100
19,CC[N+](CCCNC(=O)Nc1ccccc1)(CCc1ccc(Cl)cc1)Cc1ccc(C(C)(C)C)cc1.[I-] (stereo not drawn) [compound 342],97
20,CC[N+](CCCNC(=O)Nc1ccccc1)(CCc1ccc(Cl)cc1)Cc1ccc(OC)cc1.[I-] (stereo not drawn) [compound 344],100
21,CC[N+](CCCNC(=O)Nc1ccccc1)(CCc1ccc(Cl)cc1)Cc1ccc(C#N)cc1.[I-] (stereo not drawn) [compound 345],100
22,CC[N+](CCCNC(=O)Nc1ccccc1)(CCc1ccc(Cl)cc1)Cc1ccccc1C.[I-] (stereo not drawn) [compound 346],100
23,CC[N+](CCCNC(=O)Nc1ccccc1)(CCc1ccc(Cl)cc1)Cc1cccc(C)c1.[I-] (stereo not drawn) [compound 347],100
24,CC[N+](CCCNC(=O)Nc1ccccc1)(CCc1ccc(Cl)cc1)Cc1cc2c(cc1Cl)OCO2.[I-] (stereo not drawn) [compound 348],100
25,CC[N+](CCCNC(=O)Nc1ccccc1)(CCc1ccc(Cl)cc1)Cc1ccc(OCc2ccccc2)c(OCc2ccccc2)c1.[I-] (stereo not drawn) [compound 350],59
26,CC[N+](CCCNC(=O)Nc1ccccc1)(CCc1ccc(Cl)cc1)Cc1ccc(C)c(C)c1.[I-] (stereo not drawn) [compound 353],100
27,CC[N+](CCCNC(=O)Nc1ccccc1)(CCc1ccc(Cl)cc1)Cc1cccc(Oc2ccccc2F)c1.[I-] (stereo not drawn) [compound 354],100

# Other lines, results leading:
row,Chemotaxis Assay 10 µM (inhibition %) [%],SMILES
1,100,CC[N+](CCCNC(=O)Nc1ccccc1)(CCc1ccc(Cl)cc1)CCc1ccc(Cl)cc1.[I-] [compound 317]
2,100,CC[N+](CCCNC(=O)Nc1ccc(Cl)c(Cl)c1)(CCc1ccc(Cl)cc1)Cc1ccccc1.[I-] (stereo not drawn) [compound 325]
3,100,CC[N+](CCCNC(=O)Nc1ccccc1)(CCc1ccc(Cl)cc1Cl)Cc1ccccc1.[I-] (stereo not drawn) [compound 327]
4,100,CC[N+](CCCNC(=O)Nc1ccccc1)(CCc1ccc(Cl)cc1)Cc1cccc(Cl)c1.[I-] (stereo not drawn) [compound 329]
5,100,CC[N+](CCCNC(=O)Nc1ccccc1)(CCc1ccc(Cl)cc1)Cc1ccc(F)cc1F.[I-] (stereo not drawn) [compound 339]
6,100,CC[N+](CCCNC(=O)Nc1ccccc1)(CCc1ccc(Cl)cc1)Cc1ccc(Br)cc1.[I-] (stereo not drawn) [compound 340]
7,100,CC[N+](CCCNC(=O)Nc1ccccc1)(CCc1ccc(Cl)cc1)Cc1ccc(Cl)c(Cl)c1.[I-] (stereo not drawn) [compound 349]

# Same assay, conditions: U-937; 10 µM test compound; eotaxin 1 x 10^-9 M; CCR3/U937 cells (Table 3c)
row,inhibition at 10 µM [%],SMILES
1,100,"CC[N+](CCCNC(=O)Nc1ccccc1)(CCc1ccc(Cl)cc1)Cc1cccc(F)c1 (stereo not drawn) [Compound 352, [3-(Phenylureido)propyl][2-(4-chlorophenyl)ethyl](3-fluorobenzyl)ethylammonium iodide]"

# Same assay, conditions: test compound 0.1 µg/ml; eotaxin 1 x 10^-9 M; CCR3/U937 transfectants; 37 °C, 1 hour
row,SMILES,Chemotaxis Assay 0.1 µg/ml (inhibition %) [%]
1,C=C(C)C[N+](CC)(CCCNC(=O)Nc1ccc(Cl)c(Cl)c1)CCc1ccccc1.[I-] (stereo not drawn) [compound 368],88
2,CC[N+](CCCNC(=O)Nc1ccc(C(F)(F)F)cc1)(CCOCCOC)CCc1cccc(F)c1.[I-] (stereo not drawn) [compound 389],65

# Now from value to compound:
row,Chemotaxis Assay 0.1 µg/ml (inhibition %) [%],SMILES
1,49,CC[N+](CCCNC(=O)Nc1ccc(Cl)c(Cl)c1)(CCOCCOC)CCc1ccccc1.[I-] (stereo not drawn) [compound 359]
2,70,CC[N+](CCCNC(=O)Nc1ccc(Cl)c(Cl)c1)(CCOCCOC)CCc1cccc(F)c1.[I-] (stereo not drawn) [compound 360]
3,82,CC[N+](CCF)(CCCNC(=O)Nc1ccc(Cl)c(Cl)c1)CCc1cccc(Cl)c1.[I-] (stereo not drawn) [compound 369]
4,64,CC[N+](CCF)(CCCNC(=O)Nc1ccc(Cl)c(Cl)c1)CCc1ccccc1.[I-] (stereo not drawn) [compound 370]
5,86,CC[N+](CCF)(CCCNC(=O)Nc1ccc(Cl)c(Cl)c1)CCc1cccc(F)c1.[I-] (stereo not drawn) [compound 371]
6,76,CC[N+](CC#N)(CCCNC(=O)Nc1ccc(Br)cc1)CCc1cccc(Cl)c1.[I-] (stereo not drawn) [compound 372]
7,100,CC[N+](CCCNC(=O)Nc1ccc(Br)cc1)(CCOCCOC)CCc1cccc(Cl)c1.[I-] (stereo not drawn) [compound 373]
8,100,CC[N+](CCCNC(=O)Nc1ccc(Br)cc1)(CCOCCOC)CCc1ccc(Cl)cc1Cl.[I-] (stereo not drawn) [compound 374]
9,91,CC[N+](CCCNC(=O)Nc1ccc(Br)cc1)(CCOCCOC)CCc1cccc(F)c1.[I-] (stereo not drawn) [compound 375]
10,87,CC[N+](CCCNC(=O)Nc1ccc(Br)cc1)(CCc1cccc(Cl)c1)CC1CCC1.[I-] (stereo not drawn) [compound 376]
11,46,CC[N+](CCCNC(=O)Nc1ccc(Br)cc1)(CCc1ccc(Cl)c(Cl)c1)CC1CCC1.[I-] (stereo not drawn) [compound 377]
12,81,C=C(C)C[N+](CC)(CCCNC(=O)Nc1ccc(Br)cc1)CCc1cccc(Cl)c1.[I-] (stereo not drawn) [compound 378]
13,80,CCC(CC)C[N+](CC)(CCCNC(=O)Nc1ccc(Br)cc1)CCc1cccc(Cl)c1.[I-] (stereo not drawn) [compound 379]
14,46,CCC(CC)C[N+](CC)(CCCNC(=O)Nc1ccc(Br)cc1)CCc1ccc(Cl)c(Cl)c1.[I-] (stereo not drawn) [compound 380]
15,68,CC[N+](CCF)(CCCNC(=O)Nc1ccc(Br)cc1)CCc1ccc(Cl)cc1.[I-] (stereo not drawn) [compound 381]
16,98,CC[N+](CCF)(CCCNC(=O)Nc1ccc(Br)cc1)CCc1cccc(Cl)c1.[I-] (stereo not drawn) [compound 382]
17,43,CC[N+](CCF)(CCCNC(=O)Nc1ccc(Br)cc1)CCc1ccc(Cl)cc1Cl.[I-] (stereo not drawn) [compound 383]
18,76,CC[N+](CCF)(CCCNC(=O)Nc1ccc(Br)cc1)CCc1ccc(Cl)c(Cl)c1.[I-] (stereo not drawn) [compound 384]
19,68,CC[N+](CCF)(CCCNC(=O)Nc1ccc(Br)cc1)CCc1cccc(F)c1.[I-] (stereo not drawn) [compound 385]
20,43,CC[N+](CCCNC(=O)Nc1ccc(C(F)(F)F)cc1)(CCOCCOC)CCc1ccc(Cl)cc1.[I-] (stereo not drawn) [compound 386]
21,94,CC[N+](CCCNC(=O)Nc1ccc(C(F)(F)F)cc1)(CCOCCOC)CCc1cccc(Cl)c1.[I-] (stereo not drawn) [compound 387]
22,56,CC[N+](CCCNC(=O)Nc1ccc(C(F)(F)F)cc1)(CCOCCOC)CCc1ccc(Cl)cc1Cl.[I-] (stereo not drawn) [compound 388]
23,51,C=C(C)C[N+](CC)(CCCNC(=O)Nc1ccc(C(F)(F)F)cc1)CCc1cccc(Cl)c1.[I-] (stereo not drawn) [compound 390]
